Values quoted from earlier work, collected in patent publication US20190274971A1, “USE OF AMERICAN GINSENG TO […]-INDUCED INTOXICATION” (ENGEN MEDICAL CORPORATION, priority 2018, published 2019).

Molecular target: CB1 receptor (Homo sapiens, UniProt P21554)
Settings: literature statement (Leonti et al., Biochemical Pharmacology 79(12):1815-1826, 2010)

Chain of CB1 receptor (P21554 whole entry): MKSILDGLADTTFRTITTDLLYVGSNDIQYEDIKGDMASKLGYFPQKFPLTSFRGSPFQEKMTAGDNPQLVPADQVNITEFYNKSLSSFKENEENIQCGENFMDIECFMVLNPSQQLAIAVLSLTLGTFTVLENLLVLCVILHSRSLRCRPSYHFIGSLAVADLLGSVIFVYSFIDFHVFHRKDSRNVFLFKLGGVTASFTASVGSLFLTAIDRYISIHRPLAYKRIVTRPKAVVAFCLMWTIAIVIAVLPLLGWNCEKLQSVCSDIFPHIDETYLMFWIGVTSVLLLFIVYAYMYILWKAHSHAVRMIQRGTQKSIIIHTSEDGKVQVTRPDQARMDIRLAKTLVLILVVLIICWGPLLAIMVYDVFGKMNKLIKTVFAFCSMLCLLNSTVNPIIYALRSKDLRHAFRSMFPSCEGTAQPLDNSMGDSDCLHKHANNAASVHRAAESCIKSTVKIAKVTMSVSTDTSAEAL

In the case of C=C[C@H](O)C#CC#CC/C=C\CCCCCCC [falcarinol], the “activity at the CB1 receptor” value is listed as “potent inverse agonist”.
